# Experiments:
# Assay type in all cases: functional
# [1] = test system: Mus sp.; experiment: Sedative activity was evaluated in mice after s.c. administration of 20 mg/kg.; details: for inhibition in vivo at 20 mg/kg: Mus sp., sc; for Inhibition: 20 mg/kg
# [2] = test system: Mus sp.; experiment: Analgesic activity was evaluated in mice after s.c. administration of 20 mg/kg.; details: for inhibition in vivo at 20 mg/kg: Mus sp., sc; for Inhibition: 20 mg/kg
# [3] = test system: Mus sp.; experiment: Analgesic activity was evaluated in mice after s.c. administration of 10 mg/kg.; details: sc
# [4] = test system: Mus sp.; experiment: Sedative activity was evaluated in mice after s.c. administration of 10 mg/kg.; details: sc
SMILES,inhibition in vivo at 20 mg/kg [1] [%],inhibition in vivo at 20 mg/kg [2] [%],Inhibition [1] [%],Inhibition [2] [%],inhibition in vivo at 10 mg/kg [3] [%],inhibition in vivo at 10 mg/kg [4] [%]
O=C(CCN1CC[N+]2(CCCC2)CC1)c1cccc([N+](=O)[O-])c1,0,59,–,–,–,–
Clc1ccccc1/C=C/CN1CC[N+]2(CCCC2)CC1,59,27,–,–,–,–
O=[N+]([O-])c1cccc(/C=C/CN2CC[N+]3(CCCC3)CC2)c1,12,32,–,–,–,–
OC(CCl)CN1CC[N+]2(CCCC2)CC1.[Br-] (stereo in doubt; 3),–,–,57,64,–,–
O=[N+]([O-])c1ccc(/C=C/CN2CC[N+]3(CCCC3)CC2)cc1,10,24,–,–,–,–
Clc1cccc(/C=C/CN2CC[N+]3(CCCC3)CC2)c1,51,42,–,–,–,–
Clc1ccc(/C=C/CN2CC[N+]3(CCCC3)CC2)cc1,12,19,–,–,–,–
O=C(CCN1CC[N+]2(CCCC2)CC1)c1ccc(O)cc1,85,100,–,–,77,–
O=C(CCN1CC[N+]2(CCCC2)CC1)c1ccc([N+](=O)[O-])cc1,35,12,–,–,–,–
O=C1CCC(=O)N1CCCN1CC[N+]2(CCCC2)CC1,10,20,–,–,–,–
C=CCN1CC[N+]2(CCCC2)CC1,0,100,–,–,45,0
C(=C\c1ccccc1)/CN1CC[N+]2(CCCC2)CC1,33,0,–,–,–,–
Cc1ccc(C(=O)CCN2CC[N+]3(CCCC3)CC2)cc1,14,25,–,–,–,–
CCN1CC[N+]2(CCCC2)CC1,0,0,–,–,–,–
O=C(CCN1CC[N+]2(CCCC2)CC1)c1ccccc1,11,25,–,–,–,–
O=C(CCN1CC[N+]2(CCCC2)CC1)c1ccoc1,0,15,–,–,–,–
O=C(CCN1CC[N+]2(CCCC2)CC1)c1cccc(O)c1,13,14,–,–,–,–
OC(CCl)CN1CC[N+]2(CCCC2)CC1.[Br-] (stereo in doubt; 7a),–,–,0,0,–,–
c1ccc(OCCCCN2CC[N+]3(CCCC3)CC2)cc1,4,9,–,–,–,–
C=C(C)CN1CC[N+]2(CCCC2)CC1,0,0,–,–,–,–
C1CC[N+]2(C1)CCN(CCC1OCCO1)CC2,25,36,–,–,–,–
OCCN1CC[N+]2(CCCC2)CC1,0,10,–,–,–,–
O=C(CCN1CC[N+]2(CCCC2)CC1)c1ccsc1,3,12,–,–,–,–

# From ChEMBL document CHEMBL1136427, “Unique spirocyclopiperazinium salt I: synthesis and structure-activity relationship of spirocyclopiperazinium salts as analgesics” (2003)
